Our source for the MIC values is ChEMBL document CHEMBL1136902, “Binaphthyl scaffolded peptoids via ring-closing metathesis reactions and their anti-bacterial activities” (2009).

In brackets after ≈: the same amount, converted by molar mass.

The subject of this assay is Staphylococcus aureus. The assay is described as follows: Antibacterial activity against Staphylococcus aureus ATCC 6538. The assay is classed as functional.
For `COC(=O)C1CC=CCOc2ccc(cc2)C[C@H](NC(C)=O)C(=O)N[C@@H](CCCCN)C(=O)N1` (stereo partly specified), the MIC (usually the smallest concentration in the dilution series that meets the test's criterion for growth inhibition) is 62.5 µg/mL (≈ 132 µM).

Turning to `COC(=O)C1CC=CCOc2ccc(cc2)C[C@H](NC(C)=O)C(=O)N[C@@H](CCCNC(=N)N)C(=O)N1` (stereo partly specified), it took 62.5 µg/mL (≈ 124 µM) to inhibit growth (MIC).

With `C=CCOc1ccc2ccccc2c1-c1c(OCC(=O)N[C@H](CCCCNC(=N)N)C(=O)N[C@H](CC=C)C(=O)OC)ccc2ccccc12.Cl`, the MIC was 8 µg/mL.

The molecule `COC(=O)[C@@H]1C/C=C\COc2ccc3ccccc3c2-c2c(ccc3ccccc23)OCC(=O)N[C@H](CCCCNC(=N)N)C(=O)N1.Cl` displayed an MIC of 8 µg/mL.

As to `C=CCOc1ccc2ccccc2c1-c1c(OCC(=O)N[C@H](CCCCN)C(=O)N[C@H](CC=C)C(=O)OC)ccc2ccccc12.Cl`, the MIC is 4 µg/mL.

Take `C=CCOc1ccc2ccccc2c1-c1c(OCCCC(=O)N[C@H](CCCCNC(=N)N)C(=O)N[C@H](CC=C)C(=O)OC)ccc2ccccc12.Cl`: the MIC worked out at 8 µg/mL.

In turn, `C=CCOc1ccc2ccccc2c1-c1c(OCC(=O)N[C@H](CCCCN)C(=O)OC)ccc2ccccc12.Cl` displayed an MIC of 32 µg/mL.

In turn, `COC(=O)C1C/C=C\COc2ccc(cc2)CC(NC(C)=O)C(=O)NC(CCCCNC(=N)N)C(=O)N1` (stereo unspecified) had an MIC of 62.5 µg/mL (≈ 121 µM).

In the case of `COC(=O)[C@H]1C/C=C/Cn2cc(c3ccccc32)CC(=O)N[C@H](CCCCN)C(=O)N1`, the MIC is 125 µg/mL (≈ 293 µM).

Regarding `COC(=O)[C@@H]1C/C=C\COc2ccc3ccccc3c2-c2c(ccc3ccccc23)OCC(=O)N[C@H](CCCCN)C(=O)N1.Cl`, 15 µg/mL was the least that counted as inhibitory (MIC).

`COC(=O)[C@@H]1C/C=C/Cc2ccc3c(c2)c2cc(ccc2n3C(=O)OC(C)(C)C)[C@H](NC(C)=O)C(=O)N[C@H](CCCCN)C(=O)N1` showed an MIC of 15 µg/mL (≈ 23.7 µM).

For `COC(=O)[C@@H]1C/C=C/Cc2cc3ccccc3c(c2OC)-c2c(OC)c(cc3ccccc23)CC(NC(C)=O)C(=O)N[C@H](CCCCN)C(=O)N1` (stereo partly specified), the MIC came to 7 µg/mL (≈ 10.1 µM).

In turn, `C=CCOc1ccc2ccccc2c1-c1c(OCCCC(=O)N[C@H](CCCCN)C(=O)N[C@H](CC=C)C(=O)OC)ccc2ccccc12.Cl` returned a minimum inhibitory concentration (MIC) of 15 µg/mL.

In turn, `COC(=O)[C@H]1C/C=C/Cn2cc(c3ccccc32)CCCC(=O)N[C@H](CCCCN)C(=O)N1` gave a minimum inhibitory concentration (MIC) of 125 µg/mL (≈ 275 µM).

In the case of `COC(=O)[C@H]1C/C=C/Cn2cc(c3ccccc32)CCC(=O)N[C@H](CCCCN)C(=O)N1`, the MIC came out at 125 µg/mL (≈ 284 µM).

Regarding `CN[C@H](CC(C)C)C(=O)N[C@H]1C(=O)N[C@@H](CC(N)=O)C(=O)N[C@H]2C(=O)N[C@H]3C(=O)N[C@H](C(=O)N[C@H](C(=O)O)c4cc(O)cc(O)c4-c4cc3ccc4O)[C@H](O)c3ccc(c(Cl)c3)Oc3cc2cc(c3O[C@@H]2O[C@H](CO)[C@@H](O)[C@H](O)[C@H]2O[C@H]2C[C@](C)(N)[C@H](O)[C@H](C)O2)Oc2ccc(cc2Cl)[C@H]1O` [VANCOMYCIN], 1.95 µg/mL (≈ 1.35 µM) was the least that counted as inhibitory (MIC).
